Reference: ChEMBL document CHEMBL6153137, “Design, Synthesis, and Biological Evaluation of Novel Orally Available Covalent CDK12/13 Dual Inhibitors for the Treatment of Tumors” (J Med Chem, 2025)
pIC50: −log10 of the molar value. Converted amounts (≈) assume the structure as drawn.

Tests used:
[1] = target: Cyclin-dependent kinase 13/Cyclin-K (Homo sapiens, UniProt Q14004); test: Inhibition of CDK13/Cyclin K (unknown origin) using pS7-CTD peptide and ATP as substrate incubated for 120 mins by ADP-Glo reagent based luminescence analysis; assay type: protein-complex assay
Cyclin-dependent kinase 13/Cyclin-K, sequence (Q14004 whole entry): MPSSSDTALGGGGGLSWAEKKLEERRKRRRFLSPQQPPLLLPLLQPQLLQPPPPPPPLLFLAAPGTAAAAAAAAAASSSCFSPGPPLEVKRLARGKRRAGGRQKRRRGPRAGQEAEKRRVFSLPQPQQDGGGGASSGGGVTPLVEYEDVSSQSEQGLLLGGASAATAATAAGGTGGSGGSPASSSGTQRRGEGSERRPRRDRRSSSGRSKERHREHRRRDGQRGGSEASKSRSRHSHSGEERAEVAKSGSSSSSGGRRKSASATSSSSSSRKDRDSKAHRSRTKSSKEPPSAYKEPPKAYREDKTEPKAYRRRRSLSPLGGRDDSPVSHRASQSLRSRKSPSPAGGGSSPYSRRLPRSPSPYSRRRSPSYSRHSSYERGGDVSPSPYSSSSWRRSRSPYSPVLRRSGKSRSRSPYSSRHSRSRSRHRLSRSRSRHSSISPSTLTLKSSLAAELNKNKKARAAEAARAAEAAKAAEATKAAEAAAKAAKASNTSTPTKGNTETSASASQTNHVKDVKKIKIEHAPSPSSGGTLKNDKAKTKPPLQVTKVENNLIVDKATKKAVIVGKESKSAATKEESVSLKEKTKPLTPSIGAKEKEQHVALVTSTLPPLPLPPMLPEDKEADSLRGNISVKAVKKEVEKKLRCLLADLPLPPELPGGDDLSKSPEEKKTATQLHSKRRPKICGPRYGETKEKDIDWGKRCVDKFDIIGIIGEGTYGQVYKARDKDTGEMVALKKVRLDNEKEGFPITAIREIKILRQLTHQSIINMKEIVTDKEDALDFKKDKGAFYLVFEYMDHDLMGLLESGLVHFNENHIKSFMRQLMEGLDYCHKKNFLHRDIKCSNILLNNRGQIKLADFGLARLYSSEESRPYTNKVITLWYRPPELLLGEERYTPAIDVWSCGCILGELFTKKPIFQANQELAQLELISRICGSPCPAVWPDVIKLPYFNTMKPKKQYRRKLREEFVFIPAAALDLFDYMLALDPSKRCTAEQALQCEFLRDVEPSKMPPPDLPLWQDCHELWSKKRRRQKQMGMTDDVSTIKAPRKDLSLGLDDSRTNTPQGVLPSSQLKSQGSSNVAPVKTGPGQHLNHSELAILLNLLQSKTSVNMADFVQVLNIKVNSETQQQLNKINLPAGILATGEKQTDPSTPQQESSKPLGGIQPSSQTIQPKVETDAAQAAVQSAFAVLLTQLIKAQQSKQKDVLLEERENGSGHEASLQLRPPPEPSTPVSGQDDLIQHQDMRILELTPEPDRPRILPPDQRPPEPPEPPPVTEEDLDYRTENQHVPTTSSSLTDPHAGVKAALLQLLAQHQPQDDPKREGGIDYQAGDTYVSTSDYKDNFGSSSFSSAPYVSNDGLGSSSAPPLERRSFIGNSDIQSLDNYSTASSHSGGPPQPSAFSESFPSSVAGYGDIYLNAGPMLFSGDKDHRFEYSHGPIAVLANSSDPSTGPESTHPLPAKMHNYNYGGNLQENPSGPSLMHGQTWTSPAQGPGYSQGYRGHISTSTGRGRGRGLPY
Cyclin-dependent kinase 13/Cyclin-K, sequence (O75909 whole entry, further chain): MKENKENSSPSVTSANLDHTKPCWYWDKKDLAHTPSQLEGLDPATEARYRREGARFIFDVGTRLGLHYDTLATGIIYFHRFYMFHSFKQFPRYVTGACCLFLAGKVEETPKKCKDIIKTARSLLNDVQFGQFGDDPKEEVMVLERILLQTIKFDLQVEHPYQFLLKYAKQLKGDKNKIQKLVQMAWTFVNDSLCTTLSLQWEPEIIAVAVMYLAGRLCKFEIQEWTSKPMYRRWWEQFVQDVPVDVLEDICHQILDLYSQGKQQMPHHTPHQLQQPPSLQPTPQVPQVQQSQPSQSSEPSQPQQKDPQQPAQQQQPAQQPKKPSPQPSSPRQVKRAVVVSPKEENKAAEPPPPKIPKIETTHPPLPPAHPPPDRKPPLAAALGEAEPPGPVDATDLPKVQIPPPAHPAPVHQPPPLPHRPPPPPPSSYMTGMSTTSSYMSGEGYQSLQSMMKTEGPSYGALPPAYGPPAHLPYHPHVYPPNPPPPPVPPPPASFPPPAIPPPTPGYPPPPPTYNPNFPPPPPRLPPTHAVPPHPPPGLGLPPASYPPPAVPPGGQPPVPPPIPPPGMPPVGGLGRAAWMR

CDK12/Cyclin K = CDK12/Cyclin K (Homo sapiens, UniProt Q9NYV4); test: Inhibition of CDK12/Cyclin K (unknown origin) using pS7-CTD peptide and ATP as substrate incubated for 120 mins by ADP-Glo reagent based luminescence analysis; assay type: protein-complex assay
CDK12/Cyclin K, sequence (O75909 whole entry): as the sequence (O75909 whole entry, further chain) above
CDK12/Cyclin K, sequence (Q9NYV4 whole entry): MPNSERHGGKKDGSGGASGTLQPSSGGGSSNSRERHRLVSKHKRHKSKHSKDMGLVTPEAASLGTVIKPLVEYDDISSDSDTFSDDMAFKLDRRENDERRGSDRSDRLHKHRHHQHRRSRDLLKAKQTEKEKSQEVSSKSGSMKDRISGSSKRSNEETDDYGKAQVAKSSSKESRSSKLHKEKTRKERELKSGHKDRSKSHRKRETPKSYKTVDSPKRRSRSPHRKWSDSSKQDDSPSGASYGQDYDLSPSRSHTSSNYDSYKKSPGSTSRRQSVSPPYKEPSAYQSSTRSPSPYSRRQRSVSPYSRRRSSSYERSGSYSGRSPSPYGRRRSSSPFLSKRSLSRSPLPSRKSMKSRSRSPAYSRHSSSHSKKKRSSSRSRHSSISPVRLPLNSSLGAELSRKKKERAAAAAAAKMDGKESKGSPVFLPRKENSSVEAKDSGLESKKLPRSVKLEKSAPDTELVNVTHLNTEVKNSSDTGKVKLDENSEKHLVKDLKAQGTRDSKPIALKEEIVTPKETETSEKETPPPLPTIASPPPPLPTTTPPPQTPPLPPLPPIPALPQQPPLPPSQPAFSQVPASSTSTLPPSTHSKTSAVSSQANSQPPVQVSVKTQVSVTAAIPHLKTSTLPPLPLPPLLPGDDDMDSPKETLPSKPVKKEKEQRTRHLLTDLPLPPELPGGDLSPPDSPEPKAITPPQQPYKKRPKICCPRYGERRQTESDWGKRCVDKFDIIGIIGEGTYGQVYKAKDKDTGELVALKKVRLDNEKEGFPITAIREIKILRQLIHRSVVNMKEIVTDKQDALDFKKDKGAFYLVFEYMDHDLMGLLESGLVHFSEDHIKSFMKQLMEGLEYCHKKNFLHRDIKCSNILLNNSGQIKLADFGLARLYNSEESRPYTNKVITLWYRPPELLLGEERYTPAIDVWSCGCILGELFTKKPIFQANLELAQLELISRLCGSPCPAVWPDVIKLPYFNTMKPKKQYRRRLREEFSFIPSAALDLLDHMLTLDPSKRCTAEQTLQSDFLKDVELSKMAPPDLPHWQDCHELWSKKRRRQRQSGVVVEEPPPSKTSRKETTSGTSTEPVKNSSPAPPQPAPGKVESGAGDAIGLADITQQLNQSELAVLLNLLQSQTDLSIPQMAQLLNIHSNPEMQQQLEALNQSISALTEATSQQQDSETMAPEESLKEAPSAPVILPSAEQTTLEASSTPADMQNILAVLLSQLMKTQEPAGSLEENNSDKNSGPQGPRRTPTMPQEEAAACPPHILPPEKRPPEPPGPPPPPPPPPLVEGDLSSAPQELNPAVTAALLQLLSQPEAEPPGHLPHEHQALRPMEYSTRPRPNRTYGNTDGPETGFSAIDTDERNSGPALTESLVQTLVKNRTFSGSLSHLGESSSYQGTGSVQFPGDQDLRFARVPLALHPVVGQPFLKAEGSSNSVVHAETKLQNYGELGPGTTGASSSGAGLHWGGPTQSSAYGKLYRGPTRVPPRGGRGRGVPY

SUM149PT = test: Antiproliferative activity against human SUM149PT cells assessed as inhibition of cell growth incubated for 7 days by CellTiter-Glo reagent based luminescence analysis; assay type: functional; conditions: 168 h
[2] = GSH reactivity assessed as half life to adduct formation at 0.1 uM by LC-MS/MS analysis; assay type: physicochemical
[3] = GSH reactivity assessed as half life to adduct formation at 10 uM by LC-MS/MS analysis; assay type: physicochemical
[4] = Permeability of the compound in human Caco-2 cells at 2 uM incubated for 2 hrs by LC-MS/MS analysis; assay type: ADME, cell-based; conditions: read-out: permeability
[5] = Kinetic solubility of the compound in phosphate buffer at pH 7.4 measured after 24 hrs by HPLC-UV analysis; assay type: physicochemical; conditions: read-out: Kinetic_solubility
[6] = Volume of distribution at steady state in CD-1 mouse at 1 mg/kg, iv measured for 24 hrs by LC-MS/MS analysis; assay type: ADME, organism-based; conditions: in vivo, read-out: Vdss
[7] = Protein binding in human plasma assessed as free fraction at 400 uM incubated for 4 hrs by equilibrium dialysis method based LC-MS/MS analysis; assay type: ADME, cell-free
[8] = GSH reactivity assessed as half life to adduct formation at 1 uM by LC-MS/MS analysis; assay type: physicochemical
[9] = Protein binding in mouse plasma assessed as free fraction at 400 uM incubated for 4 hrs by equilibrium dialysis method based LC-MS/MS analysis; assay type: ADME, cell-free
[10] = Toxicity against Balb/c mouse xenografted with human SUM149PT cells assessed as reduction in body weight at 20 mg/kg, po administered once daily via gavage for 2 days and measured after second dose; assay type: organism-based; parameters: scale not given: the % may be the effect or the level left; conditions: in vivo, 48 h, time 2 day
[11] = Cmax in CD-1 mouse at 5 mg/kg, po measured for 24 hrs by LC-MS/MS analysis; assay type: ADME, organism-based; conditions: in vivo
[12] = AUC (0 to infinity) in CD-1 mouse at 1 mg/kg, iv by LC-MS/MS analysis; assay type: ADME, organism-based; conditions: in vivo
[13] = Half life in CD-1 mouse at 5 mg/kg, po measured for 24 hrs by LC-MS/MS analysis; assay type: ADME, organism-based; conditions: in vivo
[14] = AUC (0 to infinity) in CD-1 mouse at 5 mg/kg, po by LC-MS/MS analysis; assay type: ADME, organism-based; conditions: in vivo
[15] = Oral bioavailability in CD-1 mouse at 5 mg/kg measured for 24 hrs by LC-MS/MS analysis; assay type: ADME, organism-based; conditions: in vivo
[16] = Clearance in CD-1 mouse at 1 mg/kg, iv measured for 24 hrs by LC-MS/MS analysis; assay type: ADME, organism-based; conditions: in vivo

| Compound | pIC50 [1] | pIC50 (CDK12/Cyclin K) | pIC50 (SUM149PT) | other results |
| --- | --- | --- | --- | --- |
| C=CC(=O)NC12CC(C(=O)N3CC[C@@H](Nc4ncc(Cl)c(OC)n4)C3)(C1)C2 | 5.56 | 5.62 |  |  |
| C=CC(=O)N1Cc2ncnc(N3CC[C@@H](Nc4ncc(Cl)c(OC)n4)C3)c2C1 | 6.47 |  | 6.29 |  |
| C=CC(=O)N1CCC(C(=O)N2CC[C@@H](Nc3ncc(Cl)c(OC)n3)C2)CC1 | 5.76 | 5.64 |  |  |
| C=CC(=O)N1CCc2c(nc(N3CCCC3=O)nc2N2CC[C@@H](Nc3ncc(Cl)c(OC)n3)C2)C1 | 6.70 |  | 6.34 |  |
| C=CC(=O)[C@H]1CC[C@H](C(=O)N2CC[C@@H](Nc3ncc(Cl)c(OC)n3)C2)CC1 | 5.56 | 5.43 |  |  |
| C=CC(=O)N1CCc2c(nc(N3CCN(C)C(=O)C3)nc2N2CC[C@@H](Nc3ncc(Cl)c(OC)n3)C2)C1 |  |  | 6.56 |  |
| C=CC(=O)N1CCc2c(nc(C)nc2N2CC[C@@H](Nc3ncc(Cl)c(OC)n3)C2)C1 | 7.13 |  | 6.81 |  |

Second part, led by results:

| pIC50 [1] | pIC50 (CDK12/Cyclin K) | Compound | pIC50 (SUM149PT) | other results |
| --- | --- | --- | --- | --- |
| 6.78 |  | C=CC(=O)N1CCc2c(nc(N3CCOCC3)nc2N2CC[C@@H](Nc3ncc(Cl)c(OC)n3)C2)C1 | 6.27 |  |
| 7.12 |  | C=CC(=O)N1Cc2ccnc(N3CC[C@@H](Nc4ncc(Cl)c(OC)n4)C3)c2C1 |  |  |
| 7.02 |  | C=CC(=O)N1CCc2c(nc(OC)nc2N2CC[C@@H](Nc3ncc(Cl)c(OC)n3)C2)C1 | 6.47 |  |
| 6.12 | 6.17 | C=CC(=O)N1CC2(CCC(C(=O)N3CC[C@@H](Nc4ncc(Cl)c(OC)n4)C3)CC2)C1 |  |  |
| 8.04 | 8.16 | C=CC(=O)Nc1ccc(C(=O)N2CC[C@@H](Nc3ncc(Cl)c(OC)n3)C2)cc1 | 8.58 | t1/2 [2]: 39.7 min; t1/2 [3]: 43 min; Papp at 2 h, 2 µM [4]: 2.87 ×10⁻⁶ cm/s; solubility kinetic at 24 h [5]: 48.2 µg/mL (≈ 120 µM); Vd [6]: 0.66 L/kg; fraction unbound at 4 h, 400 µM [7]: 0.003; t1/2 [8]: 40.2 min; fraction unbound at 4 h, 400 µM [9]: 0.038; Activity [10]: 10% |
| 6.97 |  | C=CC(=O)N1CCc2c(ccnc2N2CC[C@@H](Nc3ncc(Cl)c(OC)n3)C2)C1 | 6.50 |  |
| 6.63 |  | CC#CC(=O)N1CCc2c(ncnc2N2CC[C@@H](Nc3ncc(Cl)c(OC)n3)C2)C1 | 6.65 | Cmax [11]: 101 ng/mL; AUC(0-inf) [12]: 93.8 ng·h/mL; t1/2 [2]: 315.5 min; t1/2 [3]: 379.4 min; half-life [13]: 15 min; Vd [6]: 0.35 L/kg; AUC(0-inf) [14]: 54.7 ng·h/mL; bioavailability [15]: 11.2%; t1/2 [8]: 324.4 min; clearance [16]: 179 mL/min/kg |
